We go through one substance from patent US20200069775A1, “BRAIN OSTEOCALCIN RECEPTOR AND COGNITIVE DISORDERS” (The Trustees of Columbia University in the City of New York, priority 2017, published 2020).

Where no end group is shown, it is not given here.

Assay [1] concerns the target T1, complex containing Gpr158 and the G[…]q subunit (Mus musculus, UniProt Q8C419).
T1 construct: Pull-down assay using biotinylated-osteocalcin on solubilized Ocn−/− hippocampal membrane; from tissue; host or cells: hippocampi of Ocn-/- mice, membranes solubilized with n-octyl beta-D-thioglucopyranoside
T1 sequence (Q8C419 25-1200): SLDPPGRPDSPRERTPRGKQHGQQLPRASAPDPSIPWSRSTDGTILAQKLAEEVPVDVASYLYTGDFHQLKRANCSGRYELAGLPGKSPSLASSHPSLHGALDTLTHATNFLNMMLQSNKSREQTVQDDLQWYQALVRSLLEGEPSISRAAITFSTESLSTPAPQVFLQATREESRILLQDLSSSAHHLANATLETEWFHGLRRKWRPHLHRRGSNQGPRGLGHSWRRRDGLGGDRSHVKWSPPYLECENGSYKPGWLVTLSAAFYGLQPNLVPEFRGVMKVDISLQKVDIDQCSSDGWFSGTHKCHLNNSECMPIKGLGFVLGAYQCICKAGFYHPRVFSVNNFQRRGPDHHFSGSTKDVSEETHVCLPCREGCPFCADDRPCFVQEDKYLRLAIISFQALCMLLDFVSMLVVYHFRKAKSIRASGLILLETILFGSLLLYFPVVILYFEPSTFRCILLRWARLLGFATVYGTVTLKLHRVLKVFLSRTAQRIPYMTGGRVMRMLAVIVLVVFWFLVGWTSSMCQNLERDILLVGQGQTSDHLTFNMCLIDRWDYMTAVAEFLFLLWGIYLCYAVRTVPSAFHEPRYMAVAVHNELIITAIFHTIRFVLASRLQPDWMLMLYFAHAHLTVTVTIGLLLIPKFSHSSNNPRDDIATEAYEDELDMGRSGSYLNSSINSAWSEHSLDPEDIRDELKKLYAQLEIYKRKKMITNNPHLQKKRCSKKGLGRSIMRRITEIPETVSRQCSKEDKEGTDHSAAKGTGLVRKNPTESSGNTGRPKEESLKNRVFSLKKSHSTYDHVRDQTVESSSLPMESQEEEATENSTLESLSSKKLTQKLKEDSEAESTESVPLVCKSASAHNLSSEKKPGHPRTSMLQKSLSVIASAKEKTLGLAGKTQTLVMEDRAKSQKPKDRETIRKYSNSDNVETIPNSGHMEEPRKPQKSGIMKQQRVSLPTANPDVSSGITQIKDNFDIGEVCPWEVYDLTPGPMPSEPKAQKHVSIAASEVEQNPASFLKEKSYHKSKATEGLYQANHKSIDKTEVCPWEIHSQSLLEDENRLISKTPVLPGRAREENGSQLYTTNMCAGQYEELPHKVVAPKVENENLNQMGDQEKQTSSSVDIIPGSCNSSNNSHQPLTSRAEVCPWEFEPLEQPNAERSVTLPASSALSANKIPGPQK
T1 sequence (P21279 1-359 partner): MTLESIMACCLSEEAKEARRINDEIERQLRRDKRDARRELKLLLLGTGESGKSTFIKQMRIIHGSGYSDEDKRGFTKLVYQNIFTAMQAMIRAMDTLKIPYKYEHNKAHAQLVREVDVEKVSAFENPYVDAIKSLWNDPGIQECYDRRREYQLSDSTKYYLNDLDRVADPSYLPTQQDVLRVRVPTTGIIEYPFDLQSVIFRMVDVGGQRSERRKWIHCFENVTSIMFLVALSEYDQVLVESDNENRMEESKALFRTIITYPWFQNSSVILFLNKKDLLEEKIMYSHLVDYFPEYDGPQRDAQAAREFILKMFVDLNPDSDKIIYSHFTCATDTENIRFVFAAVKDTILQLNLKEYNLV
As to the kind of experiment: Pull-down assay with biotinylated osteocalcin on solubilized hippocampal membranes. The format is binding. Conditions: solubilized membranes from hippocampal tissue. Here is the method:
For Western blotting, frozen hippocampi from adult mice were lysed and homogenized in 250 µl tissue lysis buffer (25 mM Tris HCl 7.5; 100 mM NaF; 10 mM Na4P2O7; 10 mmM EDTA; 1% NP 40). Proteins were transferred to nitrocellulose membranes, and blocked with TBST-5% BSA for 1 hour. Antibodies: anti-Runx2 M-70 sc-10758, Santa Cruz, anti-BDNF: sc-546, Santa Cruz; anti-tubulin: T6199, Sigma; anti-Gpr158 ABIN1535721, Assay Biotechnology; anti-Na,K ATPase 3010S Cell Signaling , were diluted (1:1000) in TBST-5% BSA and incubated overnight at 4° C. HRP-coupled secondary antibodies and ECL were used to visualize the signal. Western blot bands were quantified using ImageJ software. cAMP accumulation was measured in primary hippocampal neurons by using cAMP Parameter Assay Kit (R&D systems) and performed in primary hippocampal neurons (DIV15) following manufacturer instructions. For IP1 accumulation was determined in primary hippocampal neurons (DIV15) by using IP-One ELISA assay kit (Cisbio) following manufacturer instructions. […]
Streptavidin were added for 30 minutes at room temperature followed by PBS washes. […] For hormonal measurement; circulating levels of the carboxylated, undercarboxylated or uncarboxylated forms of osteocalcin were measured by ELISA. CTX content in serum (ng/ml) were measured with specific ELISAs (RatLaps™ (CTX-I) EIA (Immunodiagnosticsystems).

Assay [2] deals with neurons in WT brain sections (ventral tegmental area, substantia nigrae, raphe nuclei). As to the kind of experiment: Binding of biotinylated osteocalcin to brain sections (anti-biotin immunofluorescence). Further details: species or system mouse. How it is done:
Brains from 8-week-old mice were snap-frozen in isopentane, and […] thick sections were prepared and desiccated overnight at 4° C. under vacuum. On the following day, sections were rehydrated in ice-cold binding buffer (50 mM TrisHCl [pH 7.4], 10 mM MgCl2, 0.1 mM EDTA and 0.1% BSA) for 15 min and incubated for 1 hr in the presence of biotinylated osteocalcin (3, 30, 300, 3000 ng/ml) or biotynylated recombinant GST as a control (10 μg/ml). After washing in harvesting buffer (50 mM Tris-HCl, pH 7.4), samples were fixed in 4% paraformaldehyde for 15 min, washed in PBS and incubated with goat anti-biotin antibody (1:1000, Vector laboratories) over night at 4° C. Signal was visualized by incubating with anti-goat IgG Cy-3 using Leica DM 5000B microscope (Leica). The binding assays were perform on adjacent sections for each conditions tested. […] This was tested by incubating sections of adult or embryonic (E18.5) WT brains with biotinylated undercarboxylated osteocalcin or GST-biotin alone (30 μg/ml), followed by immunofluorescence analysis using an anti-biotin antibody.

In the case of “biotinylated osteocalcin: biotin-labelled undercarboxylated osteocalcin used for binding and pull-down assays (YLGASVPSPDPLEPTREQCELNPACDELSDQYGLKTAYKRIYGITI; ends and bridges not checked; also: biotin label, attachment site not given here)”, the “binding in pull-down assay” value in assay [1] is “could bind a complex containing Gpr158 and the G[…]q subunit”. In addition, in assay [2] (WT brain sections), the “binding in the brainstem” value is “bound to neurons of the raphe nuclei”; the “binding in the midbrain” value was “bound to the ventral tegmental area and the substantia nigrae”. Moreover, the “binding to neuronal populations in brain sections” value in assay [2] (adult or embryonic (E18.5) WT brain sections) is “bound to several neuronal populations in the forebrain, midbrain, and brainstem”. For the same substance, the “specificity of binding in midbrain and brainstem (competition)” value in assay [2] (excess of unlabeled osteocalcin or of GST) is reported as “specific since it was chased away by an excess of unlabeled osteocalcin but not by an excess of GST”.
